In the NIST ThermoML archive (doi:10.1016/j.jct.2006.05.008):
Numbers after ± are expanded uncertainties.

How the values were obtained:
[1] = Adiabatic calorimetry
[2] = Molar enthalpy of transition or fusion; settings: Adiabatic calorimetry
[3] = molar heat capacity at saturation pressure; settings: Glass, Small (less than 1 g) adiabatic calorimetry

CCn1cc[n+](C)c1.[Br-] [1-ethyl-3-methylimidazolium bromide]
Crystal
Settings	Molar enthalpy of transition or fusion [kcal/mol]	Triple point temperature [K]
[1]	–	349.91 ± 0.2
[2]	4.36 ± 0.0574	–

CCC[n+]1ccn(C)c1.[Br-] [1-methyl-3-propylimidazolium bromide]
Settings	Glass transition temperature [°C]	Molar enthalpy of transition or fusion [kcal/mol]	Triple point temperature [K]	molar heat capacity [J/K/mol]
[1], Crystal	–	–	314.7 ± 0.5	–
[1], Glass	-64 ± 3	–	–	–
[1], Metastable crystal	–	–	310.4 ± 0.5	–
[2], Crystal	–	3.23 ± 0.0478	–	–
[2], Metastable crystal	–	5.11 ± 0.0717	–	–
[3], 80.55 K	–	–	–	98.61 ± 0.59
[3], 82.89 K	–	–	–	100.33 ± 0.6
[3], 84.9 K	–	–	–	101.67 ± 0.61
[3], 86.92 K	–	–	–	103.14 ± 0.62
[3], 88.94 K	–	–	–	104.66 ± 0.62
[3], 90.96 K	–	–	–	106.14 ± 0.63
[3], 92.98 K	–	–	–	107.59 ± 0.63
[3], 95 K	–	–	–	109.05 ± 0.64
[3], 97.02 K	–	–	–	110.46 ± 0.64
[3], 99.05 K	–	–	–	111.82 ± 0.65
[3], 101.08 K	–	–	–	113.17 ± 0.65
[3], 103.11 K	–	–	–	114.53 ± 0.66
[3], 105.14 K	–	–	–	115.8 ± 0.66
[3], 107.17 K	–	–	–	117.19 ± 0.67
[3], 109.2 K	–	–	–	118.42 ± 0.67
[3], 111.24 K	–	–	–	119.73 ± 0.68
[3], 113.29 K	–	–	–	120.92 ± 0.68
[3], 115.33 K	–	–	–	122.2 ± 0.69
[3], 117.37 K	–	–	–	123.41 ± 0.69
[3], 119.41 K	–	–	–	124.68 ± 0.7
[3], 121.46 K	–	–	–	125.82 ± 0.7
[3], 123.5 K	–	–	–	127.01 ± 0.71
[3], 125.55 K	–	–	–	128.16 ± 0.71
[3], 127.6 K	–	–	–	129.31 ± 0.72
[3], 129.65 K	–	–	–	130.51 ± 0.72
[3], 131.7 K	–	–	–	131.69 ± 0.73
[3], 133.75 K	–	–	–	132.94 ± 0.73
[3], 135.8 K	–	–	–	134.11 ± 0.74
[3], 137.86 K	–	–	–	135.27 ± 0.74
[3], 139.91 K	–	–	–	136.51 ± 0.75
[3], 141.97 K	–	–	–	137.66 ± 0.75
[3], 144.02 K	–	–	–	138.89 ± 0.75
[3], 146.09 K	–	–	–	140.08 ± 0.76
[3], 148.15 K	–	–	–	141.29 ± 0.77
[3], 150.21 K	–	–	–	142.47 ± 0.77
[3], 152.27 K	–	–	–	143.7 ± 0.78
[3], 154.33 K	–	–	–	144.86 ± 0.78
[3], 156.39 K	–	–	–	146.04 ± 0.78
[3], 158.46 K	–	–	–	147.24 ± 0.79
[3], 160.52 K	–	–	–	148.42 ± 0.79
[3], 162.58 K	–	–	–	149.59 ± 0.8
[3], 164.65 K	–	–	–	150.76 ± 0.8
[3], 166.71 K	–	–	–	151.98 ± 0.81
[3], 168.78 K	–	–	–	153.15 ± 0.81
[3], 170.84 K	–	–	–	154.38 ± 0.82
[3], 172.91 K	–	–	–	155.61 ± 0.82
[3], 174.97 K	–	–	–	156.8 ± 0.83
[3], 177.04 K	–	–	–	158.04 ± 0.83
[3], 179.11 K	–	–	–	159.26 ± 0.84
[3], 181.18 K	–	–	–	160.5 ± 0.84
[3], 183.25 K	–	–	–	161.87 ± 0.85
[3], 185.32 K	–	–	–	163.21 ± 0.85
[3], 187.39 K	–	–	–	164.56 ± 0.86
[3], 189.46 K	–	–	–	165.92 ± 0.86
[3], 191.53 K	–	–	–	167.36 ± 0.87
[3], 193.61 K	–	–	–	168.95 ± 0.88
[3], 195.69 K	–	–	–	170.66 ± 0.88
[3], 197.77 K	–	–	–	172.38 ± 0.89
[3], 199.86 K	–	–	–	174.39 ± 0.9
[3], 201.95 K	–	–	–	176.91 ± 0.91
[3], 202.67 K	–	–	–	177.34 ± 0.91
[3], 204.04 K	–	–	–	179.87 ± 0.92
[3], 205.14 K	–	–	–	181.79 ± 0.93
[3], 206.12 K	–	–	–	184.42 ± 0.94
[3], 207.25 K	–	–	–	188.13 ± 0.96
[3], 208.16 K	–	–	–	192.2 ± 0.98
[3], 209.29 K	–	–	–	200.7 ± 1
[3], 210.11 K	–	–	–	209.2 ± 1.1
[3], 211.19 K	–	–	–	228.95 ± 1.2
[3], 211.92 K	–	–	–	238.53 ± 1.2
[3], 213.01 K	–	–	–	255.28 ± 1.2
[3], 213.79 K	–	–	–	257.19 ± 1.2
[3], 215.01 K	–	–	–	258.34 ± 1.2
[3], 215.82 K	–	–	–	258.85 ± 1.2

CCCCn1cc[n+](C)c1.[Br-] [1-butyl-3-methylimidazolium bromide]
Crystal
Settings	Molar enthalpy of transition or fusion [kcal/mol]	Triple point temperature [K]
[1]	–	351.35 ± 0.2
[2]	5.468 ± 0.0239	–
